Results: PubChem BioAssay (NCI)
Values joined by “and” are separate entries in the source; they are usually repeats but may differ in a detail not shown here. Equal values may be shown once.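 Cells were grown in 96-well plates and exposed to each compound for 48 hours at five concentrations; endpoints were interpolated linearly between bracketing concentrations, or set to the highest concentration if not reached. The concentration for 50% growth inhibition is given as GI50. TGI: total growth inhibition.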

Experiments:
Assay in all cases: NCI-60 cell line screen, 48 h
[1] = system: 786-0 renal
[2] = system: A498 renal
[3] = system: A549 NSCLC
[4] = system: ACHN renal
[5] = system: BT-549 breast
[6] = system: CAKI-1 renal
[7] = system: CCRF-CEM leukemia
[8] = system: DU-145 prostate
[9] = system: HCC-2998 colon
[10] = system: HCT-15 colon
[11] = system: HL-60(TB) leukemia
[12] = system: HOP-62 NSCLC
[13] = system: HS 578T breast
[14] = system: HT29 colon
[15] = system: IGROV1 ovarian
[16] = system: K-562 leukemia
[17] = system: KM12 colon
[18] = system: LOX IMVI melanoma
[19] = system: M14 melanoma
[20] = system: MALME-3M melanoma
[21] = system: MCF7 breast
[22] = system: MDA-MB-231 breast
[23] = system: MDA-MB-435
[24] = system: MDA-N
[25] = system: MOLT-4 leukemia
[26] = system: NCI-H226 lung
[27] = system: NCI-H23 lung
[28] = system: NCI-H460 lung
[29] = system: NCI-H522 lung
[30] = system: NCI/ADR-RES ovarian
[31] = system: OVCAR-3 ovarian
[32] = system: OVCAR-5 ovarian
[33] = system: OVCAR-8 ovarian
[34] = system: PC-3 prostate
[35] = system: RPMI-8226 leukemia
[36] = system: RXF 393 renal
[37] = system: SF-268 CNS
[38] = system: SF-295 CNS
[39] = system: SF-539 CNS
[40] = system: SK-MEL-2 melanoma
[41] = system: SK-MEL-28 melanoma
[42] = system: SK-MEL-5 melanoma
[43] = system: SK-OV-3 ovarian
[44] = system: SN12C renal
[45] = system: SNB-19 CNS
[46] = system: SNB-75 CNS
[47] = system: SR leukemia
[48] = system: SW-620 colon
[49] = system: T-47D breast
[50] = system: TK-10 renal
[51] = system: UACC-257 melanoma
[52] = system: UACC-62 melanoma
[53] = system: UO-31 renal
[54] = system: COLO 205 colon
[55] = system: HCT-116 colon
[56] = system: HOP-92 NSCLC
[57] = system: OVCAR-4 ovarian
[58] = system: U251 CNS
[59] = system: EKVX NSCLC

SMILES: COc1ccc(-c2c(C#N)c(S)n(C3OC(CO)C(O)C(O)C3O)c(=O)c2C#N)cc1 (stereo unspecified)
- TGI [1]: > 100 µM
- TGI [2]: > 100 µM
- TGI [3]: > 100 µM
- TGI [4]: > 100 µM
- TGI [5]: > 100 µM
- TGI [6]: > 100 µM
- TGI [7]: > 100 µM
- TGI [8]: > 100 µM
- TGI [9]: > 100 µM
- TGI [10]: > 100 µM
- TGI [11]: > 100 µM
- TGI [12]: > 100 µM
- GI50 [13]: 37.3 µM and > 100 µM
- TGI [13]: > 100 µM
- TGI [14]: > 100 µM
- TGI [15]: > 100 µM
- TGI [16]: > 100 µM
- TGI [17]: > 100 µM
- TGI [18]: > 100 µM
- TGI [19]: > 100 µM
- TGI [20]: > 100 µM
- TGI [21]: > 100 µM
- TGI [22]: > 100 µM
- TGI [23]: > 100 µM
- TGI [24]: > 100 µM
- TGI [25]: > 100 µM
- TGI [26]: > 100 µM
- TGI [27]: > 100 µM
- TGI [28]: > 100 µM
- TGI [29]: > 100 µM
- TGI [30]: > 100 µM
- TGI [31]: > 100 µM
- TGI [32]: > 100 µM
- TGI [33]: > 100 µM
- TGI [34]: > 100 µM
- TGI [35]: > 100 µM
- TGI [36]: > 100 µM
- TGI [37]: > 100 µM
- TGI [38]: > 100 µM
- TGI [39]: > 100 µM
- TGI [40]: > 100 µM
- TGI [41]: > 100 µM
- TGI [42]: > 100 µM
- TGI [43]: > 100 µM
- TGI [44]: > 100 µM
- TGI [45]: > 100 µM
- TGI [46]: > 100 µM
- TGI [47]: > 100 µM
- TGI [48]: > 100 µM
- TGI [49]: > 100 µM
- TGI [50]: > 100 µM
- TGI [51]: > 100 µM
- TGI [52]: > 100 µM
- TGI [53]: > 100 µM

SMILES: COC1OC(COC(=O)NCCCCC(=O)C(F)(F)F)C(O)C(O)C1O (stereo unspecified)
- TGI [1]: > 100 µM
- TGI [3]: > 100 µM
- TGI [4]: > 100 µM
- TGI [5]: > 100 µM
- TGI [6]: > 100 µM
- TGI [7]: > 100 µM
- TGI [54]: > 100 µM
- TGI [8]: > 100 µM
- TGI [9]: > 100 µM
- TGI [55]: > 100 µM
- TGI [10]: > 100 µM
- TGI [11]: > 100 µM
- TGI [12]: > 100 µM
- TGI [56]: > 100 µM
- TGI [13]: > 100 µM
- TGI [14]: > 100 µM
- TGI [15]: > 100 µM
- TGI [16]: > 100 µM
- TGI [17]: > 100 µM
- TGI [18]: > 100 µM
- TGI [19]: > 100 µM
- TGI [20]: > 100 µM
- TGI [21]: > 100 µM
- TGI [22]: > 100 µM
- TGI [23]: > 100 µM
- TGI [24]: > 100 µM
- TGI [25]: > 100 µM
- TGI [27]: > 100 µM
- TGI [28]: > 100 µM
- TGI [30]: > 100 µM
- TGI [31]: > 100 µM
- TGI [57]: > 100 µM
- TGI [32]: > 100 µM
- TGI [34]: > 100 µM
- TGI [35]: > 100 µM
- TGI [36]: > 100 µM
- TGI [37]: > 100 µM
- TGI [38]: > 100 µM
- TGI [39]: > 100 µM
- TGI [40]: > 100 µM
- TGI [41]: > 100 µM
- TGI [42]: > 100 µM
- TGI [43]: > 100 µM
- TGI [44]: > 100 µM
- TGI [45]: > 100 µM
- TGI [46]: > 100 µM
- TGI [47]: > 100 µM
- TGI [48]: > 100 µM
- TGI [49]: > 100 µM
- TGI [50]: > 100 µM
- TGI [58]: > 100 µM
- TGI [51]: > 100 µM
- TGI [52]: > 100 µM
- TGI [53]: > 100 µM

SMILES: N#Cc1ccc(OCc2ccc3nc(-c4ccccc4)c(Cl)nc3c2)cc1
- TGI [1]: > 100 µM
- TGI [2]: > 100 µM
- TGI [3]: > 100 µM
- TGI [4]: > 100 µM
- TGI [5]: > 100 µM
- TGI [6]: > 100 µM
- TGI [7]: > 100 µM
- TGI [54]: > 100 µM
- TGI [8]: > 100 µM
- TGI [59]: > 100 µM
- TGI [9]: > 100 µM
- TGI [55]: > 100 µM
- TGI [10]: > 100 µM
- TGI [11]: > 100 µM
- TGI [12]: > 100 µM
- TGI [56]: > 100 µM
- TGI [13]: > 100 µM
- TGI [14]: > 100 µM
- TGI [15]: > 100 µM
- TGI [17]: > 100 µM
- TGI [18]: > 100 µM
- TGI [19]: > 100 µM
- TGI [20]: > 100 µM
- TGI [21]: > 100 µM
- TGI [22]: > 100 µM
- TGI [23]: > 100 µM
- TGI [24]: > 100 µM
- TGI [25]: > 100 µM
- TGI [27]: > 100 µM
- TGI [28]: > 100 µM
- TGI [29]: > 100 µM
- TGI [30]: > 100 µM
- TGI [31]: > 100 µM
- TGI [57]: > 100 µM
- TGI [32]: > 100 µM
- TGI [33]: > 100 µM
- TGI [34]: > 100 µM
- TGI [35]: > 100 µM
- TGI [37]: > 100 µM
- TGI [38]: > 100 µM
- TGI [39]: > 100 µM
- TGI [40]: > 100 µM
- TGI [41]: > 100 µM
- TGI [42]: > 100 µM
- TGI [44]: > 100 µM
- TGI [45]: > 100 µM
- TGI [46]: > 100 µM
- TGI [47]: > 100 µM
- TGI [48]: > 100 µM
- TGI [49]: > 100 µM
- TGI [50]: > 100 µM
- TGI [58]: > 100 µM
- TGI [51]: > 100 µM
- TGI [52]: > 100 µM
- TGI [53]: > 100 µM

SMILES: c1ccc2c(c1)CCN2CCc1c[nH]c2ccccc12
- TGI [1]: > 10 µM
- TGI [3]: > 10 µM
- TGI [4]: > 10 µM
- TGI [5]: > 10 µM
- TGI [6]: > 10 µM
- TGI [7]: > 10 µM
- TGI [54]: > 10 µM
- TGI [8]: > 10 µM
- TGI [59]: > 10 µM
- TGI [9]: > 10 µM
- TGI [55]: > 10 µM
- TGI [10]: > 10 µM
- TGI [11]: > 10 µM
- TGI [12]: > 10 µM
- TGI [56]: > 10 µM
- TGI [13]: > 10 µM
- TGI [14]: > 10 µM
- TGI [15]: > 10 µM
- TGI [16]: > 10 µM
- TGI [17]: > 10 µM
- TGI [18]: > 10 µM
- TGI [19]: > 10 µM
- TGI [20]: > 10 µM
- TGI [21]: > 10 µM
- TGI [22]: > 10 µM
- TGI [23]: > 10 µM
- TGI [24]: > 10 µM
- TGI [25]: > 10 µM
- TGI [26]: > 10 µM
- TGI [27]: > 10 µM
- TGI [28]: > 10 µM
- TGI [29]: > 10 µM
- TGI [30]: > 10 µM
- TGI [31]: > 10 µM
- TGI [57]: > 10 µM
- TGI [32]: > 10 µM
- TGI [33]: > 10 µM
- TGI [34]: > 10 µM
- TGI [35]: > 10 µM
- TGI [36]: > 10 µM
- TGI [37]: > 10 µM
- TGI [38]: > 10 µM
- TGI [39]: > 10 µM
- TGI [40]: > 10 µM
- TGI [41]: > 10 µM
- TGI [42]: > 10 µM
- TGI [43]: > 10 µM
- TGI [44]: > 10 µM
- TGI [45]: > 10 µM
- TGI [46]: > 10 µM
- TGI [47]: > 10 µM
- TGI [48]: > 10 µM
- TGI [49]: > 10 µM
- TGI [50]: > 10 µM
- TGI [58]: > 10 µM
- TGI [51]: > 10 µM
- TGI [52]: > 10 µM
- TGI [53]: > 10 µM
